In patent publication US5612363A, “N,N-di(aryl) cyclic urea derivatives as anti-coagulants” (Berlex Laboratories, Inc., priority 1995, dated 1997):
Residues, ends and D or L forms follow the SMILES beside them.

Experiments:
Human thrombin = target: T1, Human thrombin (Homo sapiens, UniProt P00734); test: In vitro chromogenic assay for thrombin (S2302 cleavage); type: biochemical; settings: assay buffer pH 7.5, ambient temperature; read-out: Km (substrate concentration equal to Km)
T1 construct: Human thrombin stock solution; purchased Enzyme Research Lab
Experimental: (§1) The activities were determined as an initial rate of cleavage of the peptide p-nitroanilide by the enzyme. The cleavage product, p-nitroaniline, absorbs at 405 nm with a molar extinction coefficient of 9920M^-1 cm^-1.
(§2) 50 mM TrisHCl, 150 mM NaCl, 2.5 mM CaCl2, and 0.1% polyethylene glycol 6000, pH 7.5.
2. Human thrombin stock solution: Stored at -80° C. (working solution (2×): 1200 ng/mL or 40 nM in assay buffer, prepare prior to use).
1. S2222 (FXa assay) stock solution: 6 mM in dH2 O, store at 4° C. (working solution (4×): 656 μM in assay buffer). p1 2. S2302 (Thrombin assay) stock solution: 10 mM in dH2 O, stored at 4° C. (working solution (4×): 1200 μM in assay buffer).
Assays were performed in 96-well microtiter plates in a total volume of 200 μl. […] Concentrations of the standard inhibitor compound in the assay were from 5 μM to 0.021 μM in 1 to 3 dilution. Concentration of the test compounds in the assay typically were from 10 μM to 0.041 μM in 1 to 3 dilution. […]
(§3) The enzyme kinetics were measured at 405 nm, at 10 seconds interval, for five minutes in a THERMOmax plate reader at ambient temperature.
Enzyme rates were calculated as mOD/min based on the first two minutes readings. The IC50 values were determined by fitting the data to the log-logit equation (linear) or the Morrison equation (non-linear) with an EXCEL spread-sheet. […]

[1] = target: T2, Human tissue plasminogen activator (tPA) (Two chains, Sigma) (Homo sapiens, UniProt P00750); test: In vitro chromogenic assay for tissue plasminogen activator (S2288 cleavage); type: biochemical; settings: assay buffer pH 7.5, ambient temperature; read-out: Km (substrate concentration equal to Km)
T2 construct: (tPA) (Two chains, Sigma); purchased Sigma
Experimental: as §1, §2
3. Human tissue plasminogen activator (tPA) (Two chains, Sigma) stock solution: 1 mg/mL, stored at -80° C. (working solution (2×): 1361 ng/mL in assay buffer, prepare prior to use).
3. S2288 (tPA assay) stock solution: 10 mM in dH2 O, stored at 4° C. (working solution (4×): 1484 μM in assay buffer). (All substrate working solutions were prepared on assay […].)
Assays were performed in 96-well microtiter plates in a total volume of 200 μl. […] Concentrations of the standard inhibitor compound in the assay were from 5 μM to 0.021 μM in 1 to 3 dilution. Concentration of the test compounds in the assay typically were from 10 μM to 0.041 μM in 1 to 3 dilution. For potent test compounds, the concentrations used in the factor Xa assay were further diluted 100 fold (100 nM to 0.41 nM) or 1000 fold (10 nM to 0.041 nM). All substrate concentrations used are equal to their Km values under the present assay conditions. Assays were performed at ambient temperature. […]
as §3

T2 sequence (P00750 311-562 limits assumed): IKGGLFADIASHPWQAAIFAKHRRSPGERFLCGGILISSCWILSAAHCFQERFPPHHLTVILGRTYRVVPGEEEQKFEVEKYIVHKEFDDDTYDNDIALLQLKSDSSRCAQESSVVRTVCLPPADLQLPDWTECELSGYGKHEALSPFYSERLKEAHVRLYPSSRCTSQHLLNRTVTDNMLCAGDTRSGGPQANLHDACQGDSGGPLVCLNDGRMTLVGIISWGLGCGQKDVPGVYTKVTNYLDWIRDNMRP
T2 sequence (P00750 36-310 partner limits assumed): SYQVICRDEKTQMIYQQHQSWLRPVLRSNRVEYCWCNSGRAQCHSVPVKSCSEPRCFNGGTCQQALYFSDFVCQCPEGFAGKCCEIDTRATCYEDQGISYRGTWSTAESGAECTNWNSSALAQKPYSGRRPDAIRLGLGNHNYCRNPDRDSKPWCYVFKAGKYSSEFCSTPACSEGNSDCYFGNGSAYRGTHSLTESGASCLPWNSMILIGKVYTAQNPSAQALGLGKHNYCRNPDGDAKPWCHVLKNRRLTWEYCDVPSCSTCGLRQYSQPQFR

Row | SMILES | Km (Human thrombin) [µM] | Km [1] [µM]
1 | N=C(N)NCCC[C@H](NC(=O)[C@H](Cc1ccccc1)NC(=O)[C@H]1CCCN1)C(=O)Nc1ccc([N+](=O)[O-])cc1 [Example S2302] (HELM PEPTIDE1{[dP].F.R.[O=[N+]([O-])c1ccc(N[*:1])cc1]}$$$$V2.0) | 300 | –
2 | CC[C@@H](C)[C@@H](N)C(=O)N1CCC[C@H]1C(=O)N[C@@H](CCCN=C(N)N)C(=O)Nc1ccc([N+](=O)[O-])cc1 [Example S2288] (HELM PEPTIDE1{[dI].P.R.[O=[N+]([O-])c1ccc(N[*:1])cc1]}$$$$V2.0) | – | 371
